Data taken from publication PMC5585240, “NF-κB inhibitors, unique γ-pyranol-γ-lactams with sulfide and sulfoxide moieties from Hawaiian plant Lycopodiella cernua derived fungus Paraphaeosphaeria neglecta FT462” (Scientific Reports, 2017).
“Also recorded” adds a separate entry of the source. Like-named read-outs stand apart in the source and are kept apart here.

Legend:
iNOS = assay: Nitric oxide (iNOS) assay in LPS-stimulated RAW 264.7 cells, Griess reagent; assay type: cell-based; conditions: Mus musculus, RAW264.7; lipopolysaccharide-stimulated (1 μg/mL, 20 h) RAW 264.7 cells, nitrite; read-out: iNOS inhibition IC50
Experimental: RAW 264.7 cells (1 × 10^4 cells/well) were seeded and incubated in 96-well culture plates at 37 °C, 5% CO2 in humidified air for 24 h. Then, complete medium was replaced with phenol red-free medium containing various concentrations of the test compounds, followed by LPS stimulation (1 μg/mL) for 20 h. The nitrite released in the culture media was reacted with Griess reagent, and the absorbance was measured at 540 nm. The amount of nitrite was calculated using a standard curve of known nitrite concentration versus absorbance at 540 nm. TPCK was used as a positive control. IC50 values were calculated using Table Curve 2D Windows V4.07 by AISN Software Inc[44].

[1] = Cytotoxicity in the iNOS assay; assay type: cell-based; conditions: mouse, RAW 264.7 cells
E. coli JW2496 (∆bamB) = assay: Antibacterial microbroth dilution assay; assay type: cell-based; conditions: 20 μg/mL (maximum test concentration)
Experimental: MIC values were determined against E. coli JW2496 (∆bamB) and other bacteria using the standard microbroth dilution method exactly as previously described, which is based on the methods by the Clinical and Laboratory Standards Institute[41], [42]. The maximum test concentration used was 20 μg/mL.

NF-κB = assay: TNF-α-induced NF-κB luciferase reporter assay in human embryonic kidney cells 293; assay type: cell-based; conditions: 293 cells, 6 h, read-out: NF-κB inhibition IC50
Experimental: We employed human embryonic kidney cells 293, Panomic for monitoring changes occurring along the NF-κB pathway. Stable constructed cells were seeded into 96-well plates at 20 × 10^3 cells per well. Cells were maintained in Dulbecco’s modified Eagle’s medium (DMEM) (Invitrogen Co.), supplemented with 10% FBS, 100 units/mL penicillin, 100 μg/mL streptomycin, and 2 mM L-glutamine. After 48 h incubation, the medium was replaced and the cells were treated with various concentrations of test substances. TNF-α (human, recombinant, E. coli, Calbiochem) was used as an activator at a concentration of 2 ng/mL (0.14 nM). The plate was incubated for 6 h. Spent medium was discarded, and the cells were washed once with PBS. Cells were lysed using 50 μL (for 96-well plate) of reporter lysis buffer from Promega by incubating for 5 min on a shaker, and stored at −80 °C. The luciferase assay was performed using the Luc assay system from Promega. The gene product, luciferase enzyme, reacts with luciferase substrate, emitting light, which was detected using a luminometer (LUMIstar Galaxy BMG). Data for NF-κB inhibition are expressed as IC50 values (i.e., concentration required to inhibit TNFinduced NF-kB activity by 50%). The known NF-κB inhibitor TPCK was used as a positive control.

[2] = Cytotoxicity under the same conditions as the NF-κB assay; assay type: cell-based; conditions: human
STAT3 = system: STAT3; parameters: method as in PMID 26107089, PMID 16928075; conditions: cited from earlier work
[3] = Homo sapiens, HEK293, TNF-α (2 ng/mL) induced NF-κB activity

IC50 (iNOS) | SMILES | IC50 at 20 h [1] | inhibition of E. coli JW2496 (E. coli JW2496 (∆bamB)) | IC50 (NF-κB; [3]) | IC50 at 6 h [2] | IC50 (NF-κB; TNF-α (2 ng/mL) induced NF-κB activity) | STAT3 inhibition (STAT3)
43.2 ± 0.7 µM | CCCCC[C@@H]1OC2=C(C(=O)N(OC)[C@@H]2CSC[C@@H](O)C(=O)O)[C@@H](O)[C@@]1(C)O [Compound 2, Paraphaeosphaeride F] | > 50 µM | – | – | > 50 µM | – | –
16.1 ± 6.6 µM | CCCCC[C@@H]1OC2=C(C(=O)N(OC)[C@@H]2C[S@+]([O-])C[C@@H](O)C(=O)O)[C@H](O)[C@@]1(C)O [Compound 3, Paraphaeosphaeride G] | > 50 µM | – | 1.5 µM | > 50 µM | – | –

Further lines, the molecule ahead of its results:

SMILES | IC50 (iNOS) | IC50 at 20 h [1] | inhibition of E. coli JW2496 (E. coli JW2496 (∆bamB)) | IC50 (NF-κB; [3]) | IC50 at 6 h [2] | IC50 (NF-κB; TNF-α (2 ng/mL) induced NF-κB activity) | STAT3 inhibition (STAT3)
CCCCC[C@@H]1OC2=C(C(=O)N(OC)[C@@H]2CSC[C@@H](O)C(=O)O)[C@H](O)[C@@]1(C)O [Compound 1, Paraphaeosphaeride E] | 47.9 ± 0.03 µM | > 50 µM | mildly inhibited | 7.1 µM | > 50 µM | – | –
Cc1ccc(S(=O)(=O)N[C@@H](Cc2ccccc2)C(=O)CCl)cc1 [TPCK, N α-tosyl-l-phenylalanine chloromethyl ketone, reference compound] | – | – | – | – | – | 4.09 ± 0.12 µM | –
C=C1C2=C(C(=O)N1OC)[C@H](O)[C@@](C)(O)[C@H](CCCCC)O2 [phaeosphaeride A] | – | – | – | – | – | – | showed STAT3 inhibition; also recorded: showed STAT3 inhibitory activity
